Measured values taken from patent publication US20170320939A1, “COLL2-1 PEPTIDE AND ITS NITRATED FORM AS THERAPEUTIC TARGETS FOR OSTEOARTHRITIS TREATMENT” (Université de Liège, priority 2014, published 2017).
“Also recorded” adds a separate entry of the source.

Columns and labels:
IL-8 = IL-8 mRNA expression by Real Time PCR in OA synovial fibroblast cells; format: cell-based, human; settings: 24 hours
Experimental: (§1) 1.3 Treatment of synovial fibroblast cells. Cells were seeded into a six-well plate at the density of 2×10^5 cells/well in 2 ml of CM. When the cells reached confluence, the CM was replaced with 1% serum medium for 24 h to keep the cells quiescent. Cells were incubated for 24 hours with or without peptides Coll2-1 (^108HRGYPGLDG^116; 0.45 and 4.5 nmol) or Coll2-1NO2 (^108HRGYPGLDG-NO2^116; 4 and 40 pmol) at a range of concentrations found in the blood of osteoarthritic patients.
1.4 RNA extraction and Real Time Reverse Transcriptase-Polymerase Chain Reaction (RT PCR). Total RNA were extracted using the RNeasy Mini Kit (Qiagen, Netherlands) and were reverse transcribed with SuperScript III Reverse Transcriptase (Invitrogen, Belgium) according to the manufacturer's instructions. The cDNAs were quantified by real-time quantitative PCR using the Rotor Gene instrument (Qiagen, Venlo, Netherlands) and the SYBR Premix Ex Taq kit (Takara, Verviers, Belgium). The level of gene expression was determined by interpolation with a standard curve. To standardize mRNA levels, HPRT, a house keeping gene, was amplified as an internal control. The oligonucleotide primers sequences were as follow: HPRT forward, 5′-[…]-3′ (SEQ ID NO: 2); HPRT reverse, 5′-TGCCTGACCAAGGAAAGC-3′ (SEQ ID NO: 3); TSP-1 forward, 5′-CAGACCGCATTGGAGATAC-3′ (SEQ ID NO: 4); TSP-1 reverse, 5′-[…]-3′ (SEQ ID NO: 5); VEGF forward, 5′-TGCCTTGCTGCTCTAC-3′ (SEQ ID NO: 6); VEGF reverse, 5′-CACACAGGATGGCTTGAA-3′ (SEQ ID NO: 7); IL-6 forward, 5′-AAACAAATTCGGTACATCCTCG-3′ (SEQ ID NO: 8); IL-6 reverse, 5′-CCA GGC AAG TCT CCT CAT-3′ (SEQ ID NO: 9); IL-8 forward, 5′-GGAACCATCTCACTGTGTGTAA-3′ (SEQ ID NO: 10); IL-8 reverse, 5′-TGGAAAGGTTTGGAGTATGTCT-3′ (SEQ ID NO: 11).

[1] = system: OA synovial fibroblast cells; assay: Intracellular GSH assay in OA synovial fibroblast cells; format: cell-based, human; settings: Coll2-1 at 0.45 and 4.5 nmol, 24 hours
Experimental: (§2) 1.1 Patients. Synovial tissue samples were obtained from 10 patients (8 women, 2 man; mean age 70 +/−6 years) with osteoarthritis (OA) of the knee at the time of total knee joint replacement surgery. All the subjects provided their informed consent.
(§3) 1.2 Isolation and culture of synovial cells. Synovium biopsies were digested is with collagenase from Clostridium histolyticum, Type IA (1 mg/ml) (Sigma-Aldrich, Saint-Louis, USA) and 0.25% trypsin (Sigma Aldrich, Saint Louis, USA) with 0.68 mM EDTA in Tris buffer 0.1M, pH 7.4 in complete medium (CM) (DMEM (Dulbecco's Modified Eagle's Medium) Low Glucose supplemented with 10 mM HEPES, 100 U/ml penicillin, 100 μg/ml streptomycin, 2 mM glutamine and 10% fetal calf serum (Lonza, Verviers, Belgium)) for 1 hour at 37° C. The cells suspensions were passed through a 70-μm filter to remove any undigested tissue. The filtered cells suspensions were then collected by centrifugation at 800 g and were cultured in culture flasks. After 24 hours, medium was changed to eliminate non adherent cells. Synovial fibroblasts cells (SFC) were used after three passages. […]
1.6 GSH assay. Levels of intracellular GSH were assessed by monoclorobimane staining. […] The fluorescence intensities were measured at […] using excitation and emission wavelengths of 380 and 485 nm, respectively. The intracellular GSH level was expressed as arbitrary units of fluorescence intensity.

[2] = system: OA synovial fibroblast cells; assay: Intracellular H2O2 production in OA synovial fibroblast cells; format: cell-based, human
Experimental: as §2
1.2 Isolation and culture of synovial cells. Synovium biopsies were digested is with collagenase from Clostridium histolyticum, Type IA (1 mg/ml) (Sigma-Aldrich, Saint-Louis, USA) and 0.25% trypsin (Sigma Aldrich, Saint Louis, USA) with 0.68 mM EDTA in Tris buffer 0.1M, pH 7.4 in complete medium (CM) (DMEM (Dulbecco's Modified Eagle's Medium) Low Glucose supplemented with 10 mM HEPES, 100 U/ml penicillin, 100 μg/ml streptomycin, 2 mM glutamine and 10% fetal calf serum (Lonza, Verviers, Belgium)) for 1 hour at 37° C. The cells suspensions were passed through a 70-μm filter to remove any undigested tissue. The filtered cells suspensions were then collected by centrifugation at 800 g and were cultured in culture flasks. After 24 hours, medium was changed to eliminate non adherent cells. Synovial fibroblasts cells (SFC) were used after three passages.
as §1
1.5 Intracellular H2O2 and O2^∘^− productions. Levels of intracellular superoxide anion (O2^∘^−) and hydrogen peroxide (H2O2) were assessed spectrofluorimetrically by oxidation of specific probes: dihydroethidium (Molecular Probes, Leiden, The Netherlands) and H2DCFH-DA (Molecular Probes, Leiden, The Netherlands) respectively. Synovial cells seeded on 96-well plates (8×10^3 cells per well) were washed once with phosphate-buffered saline and then incubated with 50 μL of phosphate-buffered saline containing either 250 μM dihydroethidium or 200 μM H2DCFH-DA. The fluorescence intensity was measured every hour for 6 hours. The levels of O2^∘^− or H2O2 are expressed in arbitrary unit/living cell. The numbers of adherent cells were measured by crystal violet assay.

[3] = system: OA synovial fibroblast cells; assay: NO production in OA synovial fibroblast cells; format: cell-based, human; settings: Coll2-1 (0.45 and 4.5 nmol) or Coll2-1NO2 (4 and 40 pmol), 24 hours
Experimental: as §2, §3
1.7 NO production. Nitric oxide production was evaluated using a DAF2-DA fluorescent probe (Molecular Probes, Leiden, The Netherlands). […] The fluorescence intensity was measured every hour for 6 hours. […] The numbers of adherent cells were measured by cristal violet assay.

NF-κB = NF-κB activation, Western blotting of phospho-p65 and phospho-IκBα; format: cell-based; settings: in the presence of Coll2-1
Experimental: Western blotting. Cells were collected at 4° C. and lysed on ice in 50 μl of buffer (25 mM Hepes, 150 mM NaCl, 0.5% Triton X-100, 10% glycerol, and 1 mM dithiothreitol) containing protease and phosphatase inhibitors. After incubation at 4° C. for 30 minutes, lysates were then centrifugated at 14,000 g for 30 minutes at 4° C. to remove insoluble debris. Protein concentrations were determined using BCA assay. Total protein extracts (10 μg) were fractioned by electrophoresis on a polyacrylamide gel (10%) and transferred onto a PVDF membrane. Membrane were blocked for 1 h in TBS-Tween containing 2% bovine serum albumin (phosphor-NF-κB p65 and phospho-IκBα). Membranes were then incubated overnight at 4° C. with primary antibodies. Anti-rabbit phospho-NF-κB p65 (1:1000 dilution), anti-rabbit phospho-IκBα (1:1000 dilution) were used. Horse-radish peroxidase (HRP)-linked anti-rabbit IgG antibody (1:2000 dilution) was used as secondary antibody.

In the case of HRGYPGLDG [Coll2-1], the IL8 gene expression (IL-8; Coll2-1 at 0.45 nmol) is reported as “dose-dependently increased”, the IL8 gene expression (IL-8; Coll2-1 at 4.5 nmol) is reported as “dose-dependently increased” and the IL-8 expression (IL-8; increasing concentrations: Coll2-1 (0.45 and 4.5 nmol) or Coll2-1NO2 (4 and 40 pmol)) is reported as “increased”. For the same sequence, the “intracellular level of GSH” value [1] was “significant decrease”, the “intracellular production of H2O2” value ([2]; Coll2-1 at 4.5 nmol, 24 hours) was “significantly increased” and the H2O2 production ([2]; increasing doses of Coll2-1 peptide) was “increase”. The “production of NO (nitric oxide)” value [3] was “decreased significantly; also recorded: decrease”, the IκBα degradation (NF-κB) was “induced” and the “phosphorylation of p65 NF-κB subunit” value (NF-κB) was “observed the phosphorylation”.
